Data set [1] relates to NV in replicon-harboring cells. As to the kind of experiment: cell-based norovirus replicon system (NV replicon-harboring cells, HG23). The settings on record: Norwalk virus, α-hydroxyphosphonates, mixtures of epimers. For orientation: Replicon systems follow genome replication, usually without infectious particles.
The next data set deals with NV 3CL protease (Norovirus, UniProt Q83883). Put plainly: biochemical. Also on record: species or system norovirus strain Norwalk.
The next data set has as its system cells. As to the kind of experiment: cell cytotoxicity (microscopy and CytoTox 96 assay). The data set is classed as cell-based. From the text: Cell Cytotoxicity. The nonspecific cytotoxic effects of each compound on cells were monitored by observation under a microscopy and CytoTox 96 Non-radioactive cytotoxicity assay (Promega, Madison, Wis.).
A further data set has as its target EV71 3C protease (Human enterovirus 71, UniProt Q66478). Put plainly: biochemical.
A further data set concerns the target SARS-CoV 3CL protease (Severe acute respiratory syndrome coronavirus, UniProt P0C6X7). As to the kind of experiment: biochemical.

Bounds are passed on as bounds.

What is called EC50 is the concentration giving half of the maximal effect. In general, IC50 refers to the concentration at which inhibition is half-maximal. A higher IC50 goes with a need for much substance.

Chain of NV 3CL protease (Q83883 1101-1281 limits assumed): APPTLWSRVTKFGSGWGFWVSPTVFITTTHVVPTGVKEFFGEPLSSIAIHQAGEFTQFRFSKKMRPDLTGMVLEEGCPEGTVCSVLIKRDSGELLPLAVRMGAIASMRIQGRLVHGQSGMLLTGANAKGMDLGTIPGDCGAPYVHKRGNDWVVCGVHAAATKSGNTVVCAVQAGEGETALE
Chain of EV71 3C protease (Q66478 1549-1731 limits assumed): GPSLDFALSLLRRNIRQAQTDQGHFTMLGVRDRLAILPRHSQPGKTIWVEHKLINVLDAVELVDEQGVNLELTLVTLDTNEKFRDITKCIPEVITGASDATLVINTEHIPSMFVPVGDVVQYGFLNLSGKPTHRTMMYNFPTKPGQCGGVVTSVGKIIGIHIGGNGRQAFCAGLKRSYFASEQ

With `O=C(N[C@@H](CC1CCCCC1)C(=O)N[C@@H](CC1CCNC1=O)C(O)P(=O)(OCC(F)(F)F)OCC(F)(F)F)OCc1ccccc1` (mixture of isomers) [Compound 7g], in data set [1], the concentration giving a half-maximal response (EC50) amounted to 0.25 µM. The concentration for half-maximal inhibition (IC50) against NV 3CL protease is above 50000 nM.

On to `COP(=O)(OC)C(O)[C@H](CC1CCNC1=O)NC(=O)[C@H](CC(C)C)NC(=O)OCc1ccccc1` (mixture of isomers) [Compound 7b], for which the EC50 in data set [1] came out at 3.5 µM. In addition, the IC50 against NV 3CL protease is above 50000 nM.

As for `COP(=O)(OC)C(O)[C@H](CC1CCNC1=O)NC(=O)[C@H](CC1CCCCC1)NC(=O)OCc1ccccc1` (mixture of isomers) [Compound 7e], in data set [1], the EC50 was 2.8 µM. This molecule also gave a concentration for half-maximal inhibition (IC50) on NV 3CL protease above 50000 nM.

As to `O=C(N[C@@H](CC1CCCCC1)C(=O)N[C@@H](CC1CCNC1=O)C(O)P(=O)(OCc1ccccc1)OCc1ccccc1)OCc1ccccc1` (mixture of isomers) [Compound 7h], the EC50 in data set [1] is 0.6 µM. Moreover, at NV 3CL protease, the IC50 is above 50000 nM.

In the case of `O=CC(CC1CCNC1=O)NC(=O)C(CC1CCCCC1)N1C(=O)CCC(NC(=O)OCc2ccccc2)C1=O` (centres unmarked) [Compound 5, Benzyl(1-(3-cyclohexyl-1-oxo-1-((1-oxo-3-(2-oxopyrrolidin-3-yl)propan-2-yl)amino)propan-2-yl)-2,6-dioxopperidin-3-yl)carbamate], the “toxicity to cells (no toxicity up to)” value in the data set on cells was above 150 µM.

Consider `CCOP(=O)(OCC)C(O)[C@H](CC1CCNC1=O)NC(=O)[C@H](CC1CCCCC1)NC(=O)OCc1ccccc1` (mixture of isomers) [Compound 7d], for which, in data set [1], the half-maximal effective concentration (EC50) came to 0.25 µM. In addition, the IC50 against NV 3CL protease is above 50000 nM.

Take `CCOP(=O)(OCC)C(O)[C@H](CC1CCNC1=O)NC(=O)[C@H](CC(C)C)NC(=O)OCc1ccccc1` (mixture of isomers) [Compound 7a]: the half-maximal effective concentration (EC50) in data set [1] is 1.1 µM. The IC50 at NV 3CL protease was above 50000 nM.

For the molecule `CC(C)C[C@H](NC(=O)OCc1ccccc1)C(=O)N[C@@H](CC1CCNC1=O)C(O)P(=O)(O)O` (mixture of isomers) [Compound 7c], the EC50 in data set [1] was 0.8 µM. This molecule registered an IC50 against NV 3CL protease above 50000 nM.

For the molecule `CC(C)C[C@@H]1NC(=O)[C@@H](NC(=O)OCc2ccccc2)Cc2cn(nn2)CCCNC(=O)CC[C@@H](C=O)NC1=O` [Compound 13, Benzyl(9-formyl-12-isobutyl-6,11,14-trioxo-1,5,10,13,18,19-hexaazabicyclo[15.2.1]icosa-17(20),18-dien-15-yl)carbamate], the IC50 amounted to 1800 nM against EV71 3C protease, 5100 nM against NV 3CL protease and 15500 nM on SARS-CoV 3CL protease.

`CCCCOP(=O)(OCCCC)C(O)[C@H](CC1CCNC1=O)NC(=O)[C@H](CC1CCCCC1)NC(=O)OCc1ccccc1` (mixture of isomers) [Compound 7f]: the 50% effective concentration (EC50) in data set [1] came out at 0.5 µM. The molecule also came in with an IC50 against NV 3CL protease above 50000 nM.

For the origin of these results see patent publication US9309284B2 (priority 2012, dated 2016).
